# Measured values from patent US9562043B2 (EA Pharma Co., Ltd., priority 2012, dated 2017).
# Biological target: T1, human TRPA1 (Homo sapiens, UniProt O75762)
# T1 construct: host or cells: human embryonic kidney-derived 293T cells, transient transfection with pcDNA3.1/zeo(+) plasmid
# Assay: Measurement of TRPA1 antagonist activity (intracellular calcium increase, FLIPR)
# Type: cell-based
# Settings: 293T cells transfected with human TRPA1 expression plasmid, allylisothiocyanate 20 μM stimulation, calcium fluorescence, read-out: antagonism hTRPA1
# From the text: Measurement of TRPA1 Antagonist Activity
# Human TRPA1 Expression Plasmid
# As cDNA encoding human TRPA1 (GenBank accession No. […]), a commercially available product was purchased (manufactured by Kazusa DNA Research Institute, clone No.: pFN21AB7348, item No.: FHC07217). Using this as a template, full-length human TRPA1 gene was amplified using the primer sequences shown below, by reaction using DNA polymerase (manufactured by Stratagene, trade name: PfuUltra High-Fidelity DNA Polymerase).
# A recognition site (underlined) of restriction enzyme HindIII was added to the 5′ side, and XbaI site (underlined) was added to the 3′ side, and GTT of the template sequence was changed to termination codon TAG (bold). The obtained double stranded DNA was enzyme-digested with HindIII and XbaI, and introduced into a multicloning site of expression plasmid pcDNA3.1/zeo(+) (manufactured by Invitrogen) to give a human TRPA1 expression plasmid.
# Human embryonic kidney-derived 293T cells were cultured in Dulbecco's Modified Eagle Medium containing 10% fetal bovine serum, 10 unit penicillin, and 10 μg streptomycin, plated on a petri dish having a diameter of 10 cm at 3×10^6 cells, and cultured for 24 hr. A medium containing a reduced amount of serum (manufactured by Invitrogen, trade name: OPTI-MEM, 600 μL), a gene insertion reagent (manufactured by Mirus Bio, trade name: Mirus TransIT-293, 18 μL), and human TRPA1 expression plasmid (6 μg) were mixed, the total amount of the mixture was added to the cells on the petri dish to allow for gene transfer. The cells were recovered about 8 hr later, plated on a poly-D-lysine coated 384 well black/clear bottom plate at 7,500-12,000 cells/well, and cultured overnight.
# Measurement of Intracellular Calcium Increase
# The 384 well plate was recovered, and the medium was removed. A calcium-bonded fluorescent indicator (manufactured by Molecular Device, trade name: Calcium4 Assay Kit, 40 μL) dissolved in assay buffer (1×HBSS, 20 mM HEPES, pH 7.2) was added, and the cells were stained in a 37° C. incubator for 1 hr. The cells were taken out at room temperature and left standing for 15 min or more. A test substance (10 μL) was added by a 384 well type dispenser, and the mixture was incubated at room temperature for 10 min. Then, allylisothiocyanate (12.5 μL) at a final concentration of 20 μM was added by a fluorescence imaging plate reader (manufactured by Molecular Device, FLIPR), and changes in the relative fluorescence intensity were measured for 5 min.
# Test Substance Preparation
# The test substance was dissolved in dimethyl sulfoxide and serially diluted with an assay buffer containing 0.1% bovine serum albumin (1×HBSS, 20 mM HEPES, pH 7.2) to a 5-fold concentration of the evaluation concentration. Allylisothiocyanate, which is a known TRPA1 activator, was dissolved in dimethyl sulfoxide to 100 mM, and further diluted 5-fold (100 μM) of the final concentration, like the test substance.
# Calculation of Antagonist Activity
# Under the test substance-free conditions, the maximum variation range of the fluorescence intensity before and after allylisothiocyanate stimulation was defined to be 100% activity rate, and the variation range before and after buffer stimulation was defined as 0% activity rate. The activity rate on addition of the test substance was determined, and the numerical value obtained by subtracting the activity rate from 100 was defined to be an inhibitory rate. IC50, which is the concentration of the test substance necessary for reaching the 50% inhibitory rate, was calculated from the sigmoid approximate curve by a spreadsheet software Excel-Fit.
# T1 sequence (O75762 whole entry): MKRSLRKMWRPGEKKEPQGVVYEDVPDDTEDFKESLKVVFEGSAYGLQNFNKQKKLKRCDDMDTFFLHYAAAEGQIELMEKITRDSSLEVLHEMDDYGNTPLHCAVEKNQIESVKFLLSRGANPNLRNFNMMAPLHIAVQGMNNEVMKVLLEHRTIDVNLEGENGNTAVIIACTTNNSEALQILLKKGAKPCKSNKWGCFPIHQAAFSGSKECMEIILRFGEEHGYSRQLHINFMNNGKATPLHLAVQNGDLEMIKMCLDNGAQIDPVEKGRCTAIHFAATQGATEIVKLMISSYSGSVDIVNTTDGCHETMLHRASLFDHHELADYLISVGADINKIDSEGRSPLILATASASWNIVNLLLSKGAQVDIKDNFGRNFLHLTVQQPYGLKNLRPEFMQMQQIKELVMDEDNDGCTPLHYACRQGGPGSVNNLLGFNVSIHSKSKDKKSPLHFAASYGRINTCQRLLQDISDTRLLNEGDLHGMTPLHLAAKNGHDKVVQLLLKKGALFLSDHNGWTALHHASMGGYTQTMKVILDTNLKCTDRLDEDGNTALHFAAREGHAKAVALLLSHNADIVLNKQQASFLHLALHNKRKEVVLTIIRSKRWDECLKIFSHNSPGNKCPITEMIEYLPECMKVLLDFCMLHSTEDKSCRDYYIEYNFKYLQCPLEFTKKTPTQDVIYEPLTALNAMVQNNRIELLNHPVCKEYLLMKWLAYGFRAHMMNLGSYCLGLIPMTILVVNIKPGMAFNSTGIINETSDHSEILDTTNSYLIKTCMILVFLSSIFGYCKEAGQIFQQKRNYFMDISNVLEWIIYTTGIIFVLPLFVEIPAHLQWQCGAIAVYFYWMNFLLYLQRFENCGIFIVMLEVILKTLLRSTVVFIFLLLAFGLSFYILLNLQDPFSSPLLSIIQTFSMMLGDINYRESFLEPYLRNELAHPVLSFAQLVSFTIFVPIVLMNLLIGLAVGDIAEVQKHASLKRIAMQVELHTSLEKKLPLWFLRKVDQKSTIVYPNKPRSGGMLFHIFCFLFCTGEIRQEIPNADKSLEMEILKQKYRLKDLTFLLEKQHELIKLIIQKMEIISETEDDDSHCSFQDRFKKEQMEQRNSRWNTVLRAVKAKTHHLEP
row,SMILES,IC50 [nM]
1,"O=C(NCc1nc(-c2ccc(Cl)cc2)cs1)[C@@H]1CCCN1S(=O)(=O)c1ccc(Cl)s1 [compound 2, (2S)-1-(5-chlorothiophene-2-sulfonyl)-N-{[4-(4-chlorophenyl)thiazol-2-yl]methyl}pyrrolidine-2-carboxamide]",670
2,"O=C(NCc1nc(-c2ccccc2)cs1)[C@@H]1CCCN1S(=O)(=O)c1ccc(Cl)s1 [compound 4, (2S)-1-(5-chlorothiophene-2-sulfonyl)-N-{(4-phenylthiazol-2-yl)methyl}pyrrolidine-2-carboxamide]",760
3,"Cc1ccc(-c2csc(CNC(=O)[C@@H]3CCCN3S(=O)(=O)c3ccc(Cl)s3)n2)cc1 [compound 5, (2S)-1-(5-chlorothiophene-2-sulfonyl)-N-{[4-(4-methylphenyl)thiazol-2-yl]methyl}pyrrolidine-2-carboxamide]",580
4,"Cc1sc(CNC(=O)[C@@H]2CCCN2S(=O)(=O)c2ccc(Cl)s2)nc1-c1ccc(C(F)(F)F)cc1 [compound 9, (2S)-1-(5-chlorothiophene-2-sulfonyl)-N-({5-methyl-4-[4-(trifluoromethyl)phenyl]-thiazol-2-yl}methyl)-pyrrolidine-2-carboxamide]",150
5,"O=C(NCc1nc(-c2ccc(C(F)(F)F)cc2)co1)[C@@H]1CCCN1S(=O)(=O)c1ccc(Cl)s1 [compound 12, (2S)-1-(5-chlorothiophene-2-sulfonyl)-N-({4-(4-(trifluoromethyl)phenyl]-oxazol-2-yl}methyl)-pyrrolidine-2-carboxamide]",300

# Further molecules by falling IC50, results first:
row,IC50 [nM],SMILES
1,840,"O=C(NCc1nc(-c2cccc(C(F)(F)F)c2)cs1)[C@@H]1CCCN1S(=O)(=O)c1ccc(Cl)s1 [compound 6, (2S)-1-(5-chlorothiophene-2-sulfonyl)-N-({4-[3-(trifluoromethyl)phenyl]-thiazol-2-yl}methyl)-pyrrolidine-2-carboxamide]"
2,480,"C[C@H](NC(=O)[C@@H]1CCCN1S(=O)(=O)c1ccc(Cl)s1)c1nc(-c2ccc(OC(F)(F)F)cc2)cs1 [compound 11, (2S)-1-(5-chlorothiophene-2-sulfonyl)-N-[(1S)-1-{4-(4-(trifluoromethoxy)phenyl]-thiazol-2-yl}ethyl]-pyrrolidine-2-carboxamide]"
3,430,"O=C(NCc1nc(-c2cccc(F)c2)cs1)[C@@H]1CCCN1S(=O)(=O)c1ccc(Cl)s1 [compound 7, (2S)-1-(5-chlorothiophene-2-sulfonyl)-N-{[4-(3-fluorophenyl)thiazol-2-yl]methyl}pyrrolidine-2-carboxamide]"
4,320,"C[C@H](NC(=O)[C@@H]1CCCN1S(=O)(=O)c1ccc(Cl)s1)c1nc(-c2ccc(C(F)(F)F)cc2)cs1 [compound 10, (2S)-1-(5-chlorothiophene-2-sulfonyl)-N-[(1S)-1-{4-[4-(trifluoromethyl)phenyl]-thiazol-2-yl}ethyl]-pyrrolidine-2-carboxamide]"
5,170,"O=C(NCc1nc(-c2ccc(OC(F)(F)F)c(F)c2)cs1)[C@@H]1CCCN1S(=O)(=O)c1ccc(Cl)s1 [compound 8, (2S)-1-(5-chlorothiophene-2-sulfonyl)-N-({4-[3-fluoro-4-(trifluoromethoxy)-phenyl]thiazol-2-yl}methyl)-pyrrolidine-2-carboxamide]"
6,160,"O=C(NCc1nc(-c2ccc(OC(F)(F)F)cc2)cs1)[C@@H]1CCCN1S(=O)(=O)c1ccc(Cl)s1 [compound 3, (2S)-1-(5-chlorothiophene-2-sulfonyl)-N-({4-[4-(trifluoromethoxy)phenyl]-thiazol-2-yl}methyl)-pyrrolidine-2-carboxamide]"
7,120,"O=C(NCc1nc(-c2ccc(OC(F)(F)F)cc2)co1)[C@@H]1CCCN1S(=O)(=O)c1ccc(Cl)s1 [compound 13, (2S)-1-(5-chlorothiophene-2-sulfonyl)-N-({4-[4-(trifluoromethoxy)phenyl]-oxazol-2-yl}methyl)-pyrrolidine-2-carboxamide]"
